According to paper PMC10904736, “A c-di-GMP signaling module controls responses to iron in Pseudomonas aeruginosa” (Nature Communications, 2024):

Target: T1, ImcA (PA1851) (Pseudomonas aeruginosa, UniProt Q9I2P4)
T1 construct: full-length membrane protein (6TM L47-E231, GGDEF R241-A393), expressed in E. coli BL21(DE3), DDM-solubilised, Strep-Tactin purified, homodimer
Experiment: HPLC of c-di-GMP formation
Type: biochemical
Conditions: 200 µM GTP; 50 mM Tris-HCl pH 8.0, 150 mM NaCl, 0.025% DDM; 37 °C, 2 h; without IsmP

T1 sequence (Q9I2P4 entry or part of it): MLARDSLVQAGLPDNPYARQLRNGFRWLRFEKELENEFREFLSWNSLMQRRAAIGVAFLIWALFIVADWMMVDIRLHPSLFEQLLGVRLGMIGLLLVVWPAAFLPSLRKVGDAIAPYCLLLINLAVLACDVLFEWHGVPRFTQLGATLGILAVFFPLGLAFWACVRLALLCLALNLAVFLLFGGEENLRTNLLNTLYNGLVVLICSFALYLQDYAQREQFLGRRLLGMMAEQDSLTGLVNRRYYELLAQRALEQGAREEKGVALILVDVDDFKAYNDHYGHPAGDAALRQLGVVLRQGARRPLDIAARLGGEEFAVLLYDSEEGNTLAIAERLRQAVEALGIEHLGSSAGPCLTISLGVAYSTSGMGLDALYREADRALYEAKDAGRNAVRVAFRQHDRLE

SMILES: Nc1nc2c(ncn2[C@@H]2O[C@H](COP(=O)(O)OP(=O)(O)OP(=O)(O)O)[C@@H](O)[C@H]2O)c(=O)[nH]1 [GTP]
- HPLC of c-di-GMP formation: GTP was absolutely converted to c-di-GMP when GTP was incubated with ImcA alone
